From US8637511B2, “Aminopyrimidines useful as kinase inhibitors” (Vertex Pharmaceuticals Incorporated, priority 2005, dated 2014)
Like-named read-outs stand apart in the source and are kept apart here.

Experiments:
JAK3 = biological target: T1, JAK3 (Homo sapiens, UniProt P52333); test: biochemical
T1 sequence (P52333 1-1124): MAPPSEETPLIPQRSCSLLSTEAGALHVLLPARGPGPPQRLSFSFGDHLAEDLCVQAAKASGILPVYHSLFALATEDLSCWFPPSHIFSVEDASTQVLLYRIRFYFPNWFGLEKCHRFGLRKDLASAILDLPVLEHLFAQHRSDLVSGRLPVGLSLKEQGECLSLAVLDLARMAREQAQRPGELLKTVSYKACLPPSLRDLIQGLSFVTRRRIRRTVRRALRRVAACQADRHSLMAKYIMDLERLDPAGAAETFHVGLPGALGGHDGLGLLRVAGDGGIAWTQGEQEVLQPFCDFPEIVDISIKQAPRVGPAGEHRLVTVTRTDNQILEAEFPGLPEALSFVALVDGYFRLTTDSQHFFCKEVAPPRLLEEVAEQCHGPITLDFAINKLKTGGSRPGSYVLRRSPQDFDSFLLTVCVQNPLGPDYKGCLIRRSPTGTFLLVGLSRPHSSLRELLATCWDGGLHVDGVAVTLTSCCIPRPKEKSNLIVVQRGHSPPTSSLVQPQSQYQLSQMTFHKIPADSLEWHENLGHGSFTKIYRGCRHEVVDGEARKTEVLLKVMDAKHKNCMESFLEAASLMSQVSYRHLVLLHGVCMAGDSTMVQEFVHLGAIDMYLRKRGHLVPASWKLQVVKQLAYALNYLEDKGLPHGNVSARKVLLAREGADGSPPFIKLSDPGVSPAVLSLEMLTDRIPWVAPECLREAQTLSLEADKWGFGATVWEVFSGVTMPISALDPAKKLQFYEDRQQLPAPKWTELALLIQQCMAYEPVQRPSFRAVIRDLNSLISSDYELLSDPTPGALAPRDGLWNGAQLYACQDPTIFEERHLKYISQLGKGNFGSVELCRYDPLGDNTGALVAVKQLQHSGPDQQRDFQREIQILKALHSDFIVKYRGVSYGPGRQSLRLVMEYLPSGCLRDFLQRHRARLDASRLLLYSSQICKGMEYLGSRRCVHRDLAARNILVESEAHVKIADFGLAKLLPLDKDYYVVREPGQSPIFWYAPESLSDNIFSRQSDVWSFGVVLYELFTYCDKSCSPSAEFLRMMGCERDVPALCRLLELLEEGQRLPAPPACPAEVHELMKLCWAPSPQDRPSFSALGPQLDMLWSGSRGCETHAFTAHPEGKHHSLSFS

Colo205 cells = test: Analysis of cell proliferation and viability; format: cell-based; conditions: Homo sapiens, read-out: IC50 value
Procedure: Colo205 cells were seeded in 96 well plates and serially diluted compound was added to the wells in duplicate. Control groups included untreated cells, the compound diluent (0.1% DMSO alone) and culture medium without cells.
To measure proliferation, 3 h prior to the end of the experiment 0.5 μCi of 3H thymidine was added to each well. Cells were then harvested and the incorporated radioactivity counted on a Wallac microplate beta-counter. Cell viability was assessed using Promega CellTiter 96AQ to measure MTS conversion. Dose response curves were calculated using either Prism 3.0 (GraphPad) or SoftMax Pro 4.3.1 LS (Molecular Devices) software.

Aurora-1 (Aurora B) = Aurora-1 (Aurora B) (Homo sapiens, UniProt Q96GD4); test: Aurora-1 (Aurora B) inhibition assay (radiometric); format: biochemical; conditions: read-out: Aurora B kinase Ki value
Aurora-1 (Aurora B), sequence (Q96GD4 whole entry): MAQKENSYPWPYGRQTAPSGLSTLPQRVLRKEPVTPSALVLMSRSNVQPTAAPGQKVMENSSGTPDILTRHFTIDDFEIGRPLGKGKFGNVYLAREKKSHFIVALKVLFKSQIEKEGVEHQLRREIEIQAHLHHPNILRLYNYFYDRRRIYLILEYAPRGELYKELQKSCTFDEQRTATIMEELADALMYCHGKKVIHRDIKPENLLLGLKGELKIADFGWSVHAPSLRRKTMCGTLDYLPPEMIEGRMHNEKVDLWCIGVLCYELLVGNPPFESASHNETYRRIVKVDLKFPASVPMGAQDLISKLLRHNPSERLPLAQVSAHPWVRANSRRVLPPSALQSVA
Procedure: An assay buffer solution was prepared which consisted of 25 mM HEPES (pH 7.5), 10 mM MgCl2, 0.1% BSA and 10% glycerol. […] To 22 μL of the Aurora-B solution, in a 96-well plate, was added 2 μl of a compound stock solution in DMSO and the mixture allowed to equilibrate for 10 minutes at 25° C. The enzyme reaction was initiated by the addition of 16 μl stock [γ-^33P]-ATP solution (˜20 nCi/μL) prepared in assay buffer, to a final assay concentration of 800 μM. The reaction was stopped after 3 hours by the addition of 16 μL 500 mM phosphoric acid and the levels of ^33P incorporation into the peptide substrate were determined by the following method.
A phosphocellulose 96-well plate (Millipore, Cat no. MAPHNOB50) was pre-treated with 100 μL of a 100 mM phosphoric acid prior to the addition of the enzyme reaction mixture (40 μL). The solution was left to soak on to the phosphocellulose membrane for 30 minutes and the plate subsequently washed four times with 200 μL of a 100 mM phosphoric acid. […] Levels of non-enzyme catalyzed background radioactivity were determined by adding 16 μL of the 500 mM phosphoric acid to control wells, containing all assay components (which acts to denature the enzyme), prior to the addition of the [γ-^33P]-ATP solution. Levels of enzyme catalyzed. ^33P incorporation were calculated by subtracting mean background counts from those measured at each inhibitor concentration. […] Ki values were calculated from initial rate data by non-linear regression using the Prism software package (Prism 3.0, Graphpad Software, San Diego, Calif.).

Aurora-2 (Aurora A) = biological target: T2, Aurora-2 (Aurora A) (Homo sapiens, UniProt O14965); test: Aurora-2 (Aurora A) inhibition assay, coupled enzyme; format: biochemical
T2 sequence (O14965 1-403): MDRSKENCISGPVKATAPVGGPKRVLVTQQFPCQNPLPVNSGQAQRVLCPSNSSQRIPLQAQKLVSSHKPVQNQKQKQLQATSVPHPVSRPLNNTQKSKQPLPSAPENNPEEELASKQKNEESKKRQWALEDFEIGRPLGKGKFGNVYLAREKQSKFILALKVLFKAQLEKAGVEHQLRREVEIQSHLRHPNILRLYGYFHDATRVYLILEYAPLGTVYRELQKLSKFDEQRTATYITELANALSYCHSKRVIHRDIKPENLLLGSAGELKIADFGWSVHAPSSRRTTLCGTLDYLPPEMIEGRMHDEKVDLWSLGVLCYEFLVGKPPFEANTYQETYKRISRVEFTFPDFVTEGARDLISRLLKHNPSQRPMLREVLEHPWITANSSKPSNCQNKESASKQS
Procedure: Assays were carried out in a mixture of 100 mM Hepes (pH7.5), 10 mM MgCl2, 1 mM DTT, 25 mM NaCl, 2.5 mM phosphoenolpyruvate, 300 μM NADH, 30 μg/ml pyruvate kinase and 10 μg/ml lactate dehydrogenase. […] Assays were carried out at 30° C. and in the presence of 40 nM Aurora-2.
The plate was preincubated for 10 minutes at 30° C. and the reaction initiated by addition of 10 μl of Aurora-2. Initial reaction rates were determined with a Molecular Devices SpectraMax Plus plate reader over a 10 minute time course. IC50 and Ki data were calculated from non-linear regression analysis using the Prism software package (GraphPad Prism version 3.0cx for Macintosh, GraphPad Software, San Diego Calif., USA).

FLT-3 = biological target: T3, FLT-3 (Homo sapiens, UniProt P36888); test: FLT-3 inhibition assay, radiometric filter-binding; format: biochemical; conditions: read-out: FLT-3 Ki value
T3 sequence (P36888 27-993): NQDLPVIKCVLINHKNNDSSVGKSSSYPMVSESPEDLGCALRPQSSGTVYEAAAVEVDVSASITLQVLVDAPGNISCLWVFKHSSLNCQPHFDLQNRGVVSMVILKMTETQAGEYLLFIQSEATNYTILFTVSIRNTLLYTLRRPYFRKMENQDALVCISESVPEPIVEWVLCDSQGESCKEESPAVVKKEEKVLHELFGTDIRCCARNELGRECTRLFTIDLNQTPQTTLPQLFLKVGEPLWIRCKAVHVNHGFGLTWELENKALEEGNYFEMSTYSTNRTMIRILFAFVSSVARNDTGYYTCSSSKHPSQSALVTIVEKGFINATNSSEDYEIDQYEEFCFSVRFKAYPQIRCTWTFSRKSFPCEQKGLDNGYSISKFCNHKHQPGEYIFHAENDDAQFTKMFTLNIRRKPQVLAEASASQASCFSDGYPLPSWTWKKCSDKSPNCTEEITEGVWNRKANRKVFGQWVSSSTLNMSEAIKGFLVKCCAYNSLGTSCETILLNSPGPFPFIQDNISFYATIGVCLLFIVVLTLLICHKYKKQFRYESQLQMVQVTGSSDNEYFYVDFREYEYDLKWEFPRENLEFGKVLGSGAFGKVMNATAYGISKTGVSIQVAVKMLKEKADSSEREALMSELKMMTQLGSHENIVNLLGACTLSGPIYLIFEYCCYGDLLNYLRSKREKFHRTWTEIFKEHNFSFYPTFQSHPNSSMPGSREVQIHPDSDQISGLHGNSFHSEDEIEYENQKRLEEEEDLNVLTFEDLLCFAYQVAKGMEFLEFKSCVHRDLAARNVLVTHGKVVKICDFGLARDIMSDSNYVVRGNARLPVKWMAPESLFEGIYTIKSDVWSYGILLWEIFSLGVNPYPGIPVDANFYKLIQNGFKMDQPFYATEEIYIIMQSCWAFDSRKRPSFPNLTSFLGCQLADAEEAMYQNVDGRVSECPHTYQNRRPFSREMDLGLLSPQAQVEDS
Procedure: This assay monitors the 33P incorporation into a substrate poly(Glu, Tyr) 4:1 (pE4Y). […] Final substrate concentrations in the assay were 90 μM ATP and 0.5 mg/ml pE4Y (both from Sigma Chemicals, St. Louis, Mo.). […] Reactions were carried out at room temperature.
Two assay solutions were prepared. Solution 1 contains 100 mM HEPES (pH 7.5), 10 mM MgCl2, 25 mM NaCl, 1 mg/ml pE4Y and […] (containing 0.3 mCi of [γ-33^P]ATP for each reaction). Solution 2 contains 100 mM HEPES (pH 7.5), 10 mM MgCl2, 25 mM NaCl, 2 mM DTT, 0.02% BSA and 3 nM FLT-3. The assay was run on a 96 well plate by mixing 50 μl each of Solution 1 and […] of the compounds of the present invention. The reaction was initiated with Solution 2. […] All of the reaction volume was then transferred to a filter plate and washed with 5% TCA by a Harvester 9600 from TOMTEC (Hamden, Conn.). The amount of ^33P incorporation into pE4y was analyzed by a Packard Top Count Microplate Scintillation Counter (Meriden, Conn.). The data was fitted using Prism software to get an IC50 or Ki.

[1] = COLO 205, Colo205 cells, incubated for 96 hours
[2] = COLO 205, Colo205 cells, incubated for 72 hours
[3] = read-out: Aurora A kinase Ki value

Compound | Ki (JAK3) | IC50 (Colo205 cells; [1]) | Ki (Aurora-1 (Aurora B)) | Ki (Aurora-2 (Aurora A)) | IC50 (Colo205 cells; [2]) | Ki (Aurora-2 (Aurora A); [3]) | Ki (FLT-3) | Ki (JAK3; read-out: JAK3 Ki value) | IC50 (Colo205 cells; COLO 205, 96 h)
Cc1cc(Nc2cc(N3CCC3)nc(Sc3ccc(C(=O)Nc4ccc(Cl)cc4)cc3)n2)n[nH]1 [Compound 21] | ≤ 10 nM | > 1000 nM | 50 to 2000 nM | 5 to 200 nM | – | – | – | – | –
Cc1cc(Nc2nc(Sc3ccc(NC(=O)c4ccccc4Cl)cc3)nc(N3CCC3)c2F)[nH]n1 [Compound 192] | 500 to 2000 nM | – | 10 to 50 nM | – | > 200 nM | 1 to 5 nM | – | – | –
Cc1cc(Nc2cc(N3CCC3)nc(Sc3ccc(NC(=O)C4(C(F)(F)F)CC4)cc3)n2)[nH]n1 [Compound 142] | – | – | ≤ 10 nM | – | 30 to 200 nM | 1 to 5 nM | 150 to 1000 nM | – | –
Cc1cc(Nc2cc(N3CCC3)nc(Sc3ccc(NC(=O)c4ccc(Oc5ccccc5)cc4Cl)cc3)n2)[nH]n1 [Compound 87] | 500 to 2000 nM | – | ≤ 10 nM | – | 30 to 200 nM | ≤ 1 nM | – | – | –
Cc1cc(Nc2cc(N3CC(O)(C4CC4)C3)nc(Oc3ccc4nc(C)sc4c3)n2)[nH]n1 [Compound 180] | ≤ 10 nM | – | 10 to 50 nM | – | 30 to 200 nM | ≤ 1 nM | – | – | –
Cc1cc(Nc2cc(N3CC(F)(C4CC4)C3)nc(Sc3ccc4c(c3)CN(CC(F)(F)F)C4=O)n2)[nH]n1 [Compound 179] | – | – | ≤ 10 nM | – | 30 to 200 nM | ≤ 1 nM | – | 10 to 500 nM | –
Cc1cc(Nc2cc(N3CCC3)nc(Sc3ccc(NC(=O)c4ccc(CN5CCC5)cc4)cc3)n2)[nH]n1 [Compound 139] | – | 50 to 1000 nM | 50 to 2000 nM | – | – | 5 to 200 nM | 150 to 1000 nM | – | –
Cc1cc(Nc2cc(N3CCC3)nc(Sc3ccc(NC(=O)c4cccc(CN(C)C)c4)cc3)n2)[nH]n1 [Compound 138] | 500 to 2000 nM | 50 to 1000 nM | 50 to 2000 nM | – | – | – | – | – | –
CCC(=O)Nc1ccc(Sc2nc(Nc3cc(C)n[nH]3)cc(N3CC(O)(C(C)C)C3)n2)cc1 [Compound 99] | ≤ 10 nM | ≤ 50 nM | – | – | – | – | – | – | –
O=C(Nc1ccc(Sc2nc(Nc3cc(C4CC4)[nH]n3)cc(N3CC(O)(C4CC4)C3)n2)cc1)C1CC1 [Compound 105] | ≤ 10 nM | ≤ 50 nM | – | – | – | – | – | – | –
CCC(=O)Nc1ccc(Sc2nc(Nc3cc(C)n[nH]3)cc(N3CC(O)(C(C)CC)C3)n2)cc1 (centres unmarked) [Compound 100] | 10 to 500 nM | ≤ 50 nM | – | – | – | – | – | – | –
Cc1cc(Nc2cc(N3CC(F)(C4CC4)C3)nc(Sc3ccc(NC(=O)C4CC4)cc3F)n2)n[nH]1 [Compound 170] | 10 to 500 nM | – | – | – | ≤ 30 nM | – | – | – | –
CCC(=O)Nc1ccc(Sc2nc(Nc3cc(C4CC4)[nH]n3)cc(N3CC(O)(C4CC4)C3)n2)cc1 [Compound 102] | ≤ 10 nM | – | – | – | – | – | – | – | ≤ 50 nM
